From patent US9040518B2, “Chemical compounds” (GlaxoSmithKline LLC, priority 2010, dated 2015)
Where a name gives a salt, the structure may show the parent alone.

What follows are compounds tested against ileal bile acid cotransporter (iBAT) (Homo sapiens (Human), UniProt Q12908) (assay: Human iBAT inhibition: [3H]-taurocholate uptake into HEK293 cells expressing human iBAT). Conditions: HEK293 cells transduced with human iBAT Bacmam virus, 90 minutes at ambient temperature, mean of at least 2 datapoints.
Format: cell-based
Procedure: Method for Determination of Human iBAT Inhibition:
In preparation for measurement of bile acid uptake into cells expressing the ileal bile acid cotransporter (iBAT), HEK293 cells were cultured in DMEM/F12 supplemented with 10% FBS. Twenty four hours prior to running an experiment, cells were harvested when at a confluence of 80-90%. Cells were seeded in poly-d-lysine coated plates at 50,000 cells per well, and human iBAT Bacmam virus was added such that each well contains 3.67×10e6 pfu (73.4pfu/cell). Each assay plate was covered with Breathe Easy Seal and placed in an incubator for 24 hours to allow expression of the transporter.
On the day of the uptake experiment, 10 mM HEPES was added to Hank's Balanced Salt Solution, and the pH was adjusted to 7.4 with TRIS (HBSSH). The assay buffer was prepared by adding […] [^3H]-taurocholate and 10 μM cold taurocholate to room temperature HBSSH. A separate washing buffer was prepared by adding 10 μM cold taurocholate to HBSSH (˜30 ml per assay plate) and placed on ice. Using 100% DMSO, 8 point, 3-fold dilution curves for each test compound was prepared starting at 200 μM. Similarly, an 8 point dose response curve was prepared of the control compound [(3R,5R)-3-butyl-3-ethyl-7,8-bis(methyloxy)-5-phenyl-2,3,4,5-tetrahydro-1,4-benzothiazepine 1,1-dioxide (Brieaddy, L. E. WO9605188, 1996)] starting at 1.8 mM. Drug plates were created by adding 3 μL of each concentration to a v-bottom 96-well plate then diluted 60-fold with 177 μL of assay buffer. Plates were removed from the incubator and allowed to cool to ambient temperature. Media was aspirated, and wells were washed once with 300 μL HBSSH. 50 μL of each dose response curve concentration was added in triplicate by column to the assay plates, reserving column 10 for control (assay buffer+1.67% DMSO) and columns 11 and 12 for the control compound. Plates were incubated at ambient temperature for 90 minutes then the plates were aspirated then washed 1× with 300 μL of wash buffer. 220 μL of Microscint 20 was added to each well, and the plates were sealed. The amount of [^3H]-taurocholate in cell lysate was quantitated using a microplate scintillation counter on the following day.
IC50's can be generated using the formula, y=(Vmax*x^n)/(K^n+x^n).

ileal bile acid cotransporter (iBAT), sequence (Q12908 whole entry): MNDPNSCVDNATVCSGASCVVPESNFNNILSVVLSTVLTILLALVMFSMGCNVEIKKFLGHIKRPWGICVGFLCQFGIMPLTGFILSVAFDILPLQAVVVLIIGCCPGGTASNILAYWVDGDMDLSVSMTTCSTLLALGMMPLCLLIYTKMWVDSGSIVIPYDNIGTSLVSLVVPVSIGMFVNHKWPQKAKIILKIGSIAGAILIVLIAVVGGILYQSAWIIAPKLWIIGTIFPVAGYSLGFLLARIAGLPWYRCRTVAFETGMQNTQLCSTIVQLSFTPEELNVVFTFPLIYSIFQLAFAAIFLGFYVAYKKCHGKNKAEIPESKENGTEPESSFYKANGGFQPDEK

IC50 [nM]	SMILES
32	CCCC[C@]1(CC)CS(=O)(=O)c2cc(C(=O)NCC(C)(C)C(=O)O)c(OC)cc2[C@@H](c2ccccc2)N1 [Example 1, 3-({[(3R,5R)-3-butyl-3-ethyl-7-(methyloxy)-1,1-dioxido-5-phenyl-2,3,4,5-tetrahydro-1,4-benzothiazepin-8-yl]carbonyl}amino)-2,2-dimethylpropanoic acid]
11	CCCC[C@]1(CC)CS(=O)(=O)c2cc(C(=O)NCS(=O)(=O)O)c(OC)cc2[C@@H](c2ccccc2)N1 [Example 2, ({[(3R,5R)-3-butyl-3-ethyl-7-(methyloxy)-1,1-dioxido-5-phenyl-2,3,4,5-tetrahydro-1,4-benzothiazepin-8-yl]carbonyl}amino)methanesulfonic acid]
2540	CCCC[C@]1(CC)CS(=O)(=O)c2cc(C(=O)N(CC(=O)O)CC(=O)O)c(OC)cc2[C@@H](c2ccccc2)N1 [Example 4, 2,2′-({[(3R,5R)-3-butyl-3-ethyl-7-(methyloxy)-1,1-dioxido-5-phenyl-2,3,4,5-tetrahydro-1,4-benzothiazepin-8-yl]carbonyl}imino)diacetic acid hydrochloride]
4	CCCC[C@]1(CC)CS(=O)(=O)c2cc(CS(=O)(=O)O)c(OC)cc2[C@@H](c2ccccc2)N1 [Example 5, [3R,5R)-3-butyl-3-ethyl-7-(methyloxy)-1,1-dioxido-5-phenyl-2,3,4,5-tetrahydro-1,4-benzothiazepin-8-yl]methanesulfonic acid trifluoroacetate salt]
23	CCCC[C@]1(CC)CS(=O)(=O)c2cc(CP(=O)(O)O)c(OC)cc2[C@@H](c2ccccc2)N1 [Example 6, {[(3R,5R)-3-butyl-3-ethyl-7-(methyloxy)-1,1-dioxido-5-phenyl-2,3,4,5-tetrahydro-1,4-benzothiazepin-8-yl]methyl}phosphonic acid hydrochloride salt]
73	CCCC[C@]1(CC)CS(=O)(=O)c2cc(C(N)=O)c(OC)cc2[C@@H](c2ccccc2)N1 [Example 8, (3R,5R)-3-butyl-3-ethyl-7-(methyloxy)-5-phenyl-2,3,4,5-tetrahydro-1,4-benzothiazepine-8-carboxamide-1,1-dioxide]
3	CCCC[C@]1(CC)CS(=O)(=O)c2cc(/C=C/C(=O)O)c(OC)cc2[C@@H](c2ccccc2)N1 [Example 9, (2E)-3-[(3R,5R)-3-butyl-3-ethyl-7-(methyloxy)-1,1-dioxido-5-phenyl-2,3,4,5-tetrahydro-1,4-benzothiazepin-8-yl]-2-propenoic acid ammonium salt]
17	CCCC[C@]1(CC)CS(=O)(=O)c2cc(CCC(=O)O)c(OC)cc2[C@@H](c2ccccc2)N1 [Example 10, 3-[(3R,5R)-3-butyl-3-ethyl-7-(methyloxy)-1,1-dioxido-5-phenyl-2,3,4,5-tetrahydro-1,4-benzothiazepin-8-yl]propanoic acid]
20	CCCC[C@]1(CC)CS(=O)(=O)c2cc(CCC(=O)NS(C)(=O)=O)c(OC)cc2[C@@H](c2ccccc2)N1 [Example 11, 3-[(3R,5R)-3-butyl-3-ethyl-7-(methyloxy)-1,1-dioxido-5-phenyl-2,3,4,5-tetrahydro-1,4-benzothiazepin-8-yl]-N-(methylsulfonyl)propanamide]
68	CCCC[C@]1(CC)CS(=O)(=O)c2cc(CCC(=O)NO)c(OC)cc2[C@@H](c2ccccc2)N1 [Example 12, 3-[(3R,5R)-3-butyl-3-ethyl-7-(methyloxy)-1,1-dioxido-5-phenyl-2,3,4,5-tetrahydro-1,4-benzothiazepin-8-yl]-N-hydroxypropanamide]
167	CCCC[C@]1(CC)CS(=O)(=O)c2cc(CCC(=O)NCS(=O)(=O)O)c(OC)cc2[C@@H](c2ccccc2)N1 [Example 13, ({3-[(3R,5R)-3-butyl-3-ethyl-7-(methyloxy)-1,1-dioxido-5-phenyl-2,3,4,5-tetrahydro-1,4-benzothiazepin-8-yl]propanoyl}amino)methanesulfonic acid]
276	CCCC[C@]1(CC)CS(=O)(=O)c2cc(CCC(=O)NCC(=O)O)c(OC)cc2[C@@H](c2ccccc2)N1 [Example 14, N-{3-[(3R,5R)-3-butyl-3-ethyl-7-(methyloxy)-1,1-dioxido-5-phenyl-2,3,4,5-tetrahydro-1,4-benzothiazepin-8-yl]propanoyl}glycine]
504	CCCC[C@]1(CC)CS(=O)(=O)c2cc(CCC(=O)NCCS(=O)(=O)O)c(OC)cc2[C@@H](c2ccccc2)N1 [Example 15, 2-({3-[(3R,5R)-3-butyl-3-ethyl-7-(methyloxy)-1,1-dioxido-5-phenyl-2,3,4,5-tetrahydro-1,4-benzothiazepin-8-yl]propanoyl}amino)ethanesulfonic acid]
731	CCCC[C@]1(CC)CS(=O)(=O)c2cc(CCC(=O)NC(C)(C)C(=O)O)c(OC)cc2[C@@H](c2ccccc2)N1 [Example 16, N-{3-[(3R,5R)-3-butyl-3-ethyl-7-(methyloxy)-1,1-dioxido-5-phenyl-2,3,4,5-tetrahydro-1,4-benzothiazepin-8-yl]propanoyl}-2-methylalanine]
3330	CCCC[C@]1(CC)CS(=O)(=O)c2cc(CCC(=O)NC(CC(=O)O)CC(=O)O)c(OC)cc2[C@@H](c2ccccc2)N1 [Example 17, 3-({3-[(3R,5R)-3-butyl-3-ethyl-7-(methyloxy)-1,1-dioxido-5-phenyl-2,3,4,5-tetrahydro-1,4-benzothiazepin-8-yl]propanoyl}amino)pentanedioic acid trifluoroacetate salt]
728	CCCC[C@]1(CC)CS(=O)(=O)c2cc(CCC(=O)N(CC(=O)O)CC(=O)O)c(OC)cc2[C@@H](c2ccccc2)N1 [Example 18, 2,2′-({3-[(3R,5R)-3-butyl-3-ethyl-7-(methyloxy)-1,1-dioxido-5-phenyl-2,3,4,5-tetrahydro-1,4-benzothiazepin-8-yl]propanoyl}imino)diacetic acid]
622	CCCC[C@]1(CC)CS(=O)(=O)c2cc(CCCO)c(OC)cc2[C@@H](c2ccccc2)N1 [Example 19, 3-[(3R,5R)-3-butyl-3-ethyl-7-(methyloxy)-1,1-dioxido-5-phenyl-2,3,4,5-tetrahydro-1,4-benzothiazepin-8-yl]-1-propanol]
4	CCCC[C@]1(CC)CS(=O)(=O)c2cc(CCCS(=O)(=O)O)c(OC)cc2[C@@H](c2ccccc2)N1 [Example 20, 3-[(3R,5R)-3-butyl-3-ethyl-7-(methyloxy)-1,1-dioxido-5-phenyl-2,3,4,5-tetrahydro-1,4-benzothiazepin-8-yl]-1-propanesulfonic acid]
51	CCCC[C@]1(CC)CS(=O)(=O)c2cc(CCCP(=O)(O)O)c(OC)cc2[C@@H](c2ccccc2)N1 [Example 21, {3-[(3R,5R)-3-butyl-3-ethyl-7-(methyloxy)-1,1-dioxido-5-phenyl-2,3,4,5-tetrahydro-1,4-benzothiazepin-8-yl]propyl}phosphonic acid trifluoroacetate salt]
2440	CCCC[C@]1(CC)CS(=O)(=O)c2cc(CCCNCCS(=O)(=O)O)c(OC)cc2[C@@H](c2ccccc2)N1 [Example 22, 2-({3-[(3R,5R)-3-butyl-3-ethyl-7-(methyloxy)-1,1-dioxido-5-phenyl-2,3,4,5-tetrahydro-1,4-benzothiazepin-8-yl]propyl}amino)ethanesulfonic acid]
2	CCCC[C@]1(CC)CS(=O)(=O)c2cc(CCCC(=O)O)c(OC)cc2[C@@H](c2ccccc2)N1 [Example 23, 4-[(3R,5R)-3-butyl-3-ethyl-7-(methyloxy)-1,1-dioxido-5-phenyl-2,3,4,5-tetrahydro-1,4-benzothiazepin-8-yl]butanoic acid trifluoroacetate salt]
6	CCCC[C@]1(CC)CS(=O)(=O)c2cc(CNCC(=O)O)c(OC)cc2[C@@H](c2ccccc2)N1 [Example 25, N-{[(3R,5R)-3-butyl-3-ethyl-7-(methyloxy)-1,1-dioxido-5-phenyl-2,3,4,5-tetrahydro-1,4-benzothiazepin-8-yl]methyl}glycine]

SMILES	IC50 [nM]
CCCC[C@]1(CC)CS(=O)(=O)c2cc(C(=O)NCCS(=O)(=O)O)c(OC)cc2[C@@H](c2ccccc2)N1 [Example 3, 2-({[(3R,5R)-3-butyl-3-ethyl-7-(methyloxy)-1,1-dioxido-5-phenyl-2,3,4,5-tetrahydro-1,4-benzothiazepin-8-yl]carbonyl}amino)ethanesulfonic acid trifluoroacetate]	2
CCCC[C@]1(CC)CS(=O)(=O)c2cc(CN(CC(=O)O)CC(=O)O)c(OC)cc2[C@@H](c2ccccc2)N1 [Example 7, 2,2′-({[(3R,5R)-3-butyl-3-ethyl-7-(methyloxy)-1,1-dioxido-5-phenyl-2,3,4,5-tetrahydro-1,4-benzothiazepin-8-yl]methyl}imino)diacetic acid hydrochloride salt]	145
